According to patent publication US5057427A, “Method for resolution of stereoisomers” (Sepracor, Inc., priority 1988, dated 1991):
In brackets after ≈: the same amount, converted by molar mass. Where a name gives a salt, the structure may show the parent alone.

Assays:
[1] = biological target: T1, Protease VIII: "Subtilopeptidase A" (subtilisin Carlsberg) (Enzyme B) (Bacillus licheniformis, UniProt P00780); assay: Homogeneous aqueous enzymatic resolution (ester hydrolysis) with Enzyme B; format: biochemical; conditions: 100 mg enzyme B, 10 mmol ester in 100 ml 0.2 M phosphate buffer pH 7.0, 20-22° C., 20 hours
T1 sequence (P00780 106-379): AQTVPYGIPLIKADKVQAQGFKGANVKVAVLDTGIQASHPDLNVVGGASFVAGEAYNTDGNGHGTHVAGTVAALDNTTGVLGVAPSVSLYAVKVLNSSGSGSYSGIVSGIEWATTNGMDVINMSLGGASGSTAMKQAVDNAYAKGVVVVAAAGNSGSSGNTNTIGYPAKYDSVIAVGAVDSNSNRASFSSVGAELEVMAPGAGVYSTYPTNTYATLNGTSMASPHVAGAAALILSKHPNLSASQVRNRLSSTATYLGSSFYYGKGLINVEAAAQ

[2] = biological target: T2, Protease XVI: from Bacillus subtilis (Enzyme C) (Bacillus subtilis, UniProt P04189); assay: Homogeneous aqueous enzymatic resolution (ester hydrolysis) with Enzyme C; format: biochemical; conditions: acid product; 100 mg enzyme C, 10 mmol ester in 100 ml 0.2 M phosphate buffer pH 7.0, 20-22° C., 20 hours
T2 sequence (P04189 107-381): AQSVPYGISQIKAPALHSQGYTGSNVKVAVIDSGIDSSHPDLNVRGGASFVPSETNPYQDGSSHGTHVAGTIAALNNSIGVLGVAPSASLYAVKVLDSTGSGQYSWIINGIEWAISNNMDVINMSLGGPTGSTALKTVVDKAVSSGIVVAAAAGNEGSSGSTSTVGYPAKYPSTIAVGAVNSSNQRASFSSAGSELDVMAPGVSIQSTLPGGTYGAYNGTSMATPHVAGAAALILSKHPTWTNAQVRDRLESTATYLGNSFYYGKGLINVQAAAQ

[3] = biological target: T3, Protease XXVII: "Nagarse" (Enzyme D) (Bacillus amyloliquefaciens, UniProt P00782); assay: Homogeneous aqueous enzymatic resolution (ester hydrolysis) with Enzyme D; format: biochemical; conditions: 100 mg enzyme D, 10 mmol ester in 100 ml 0.2 M phosphate buffer pH 7.0, 20-22° C., 20 hours
T3 sequence (P00782 108-382): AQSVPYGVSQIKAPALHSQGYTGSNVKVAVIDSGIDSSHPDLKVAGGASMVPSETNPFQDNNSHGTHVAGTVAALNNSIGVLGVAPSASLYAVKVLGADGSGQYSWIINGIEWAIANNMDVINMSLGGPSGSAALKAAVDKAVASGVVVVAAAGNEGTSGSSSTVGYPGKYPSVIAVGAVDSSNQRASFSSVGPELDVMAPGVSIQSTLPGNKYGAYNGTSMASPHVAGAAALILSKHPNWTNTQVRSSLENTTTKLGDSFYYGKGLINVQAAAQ

[4] = test system: protease Prozyme 6 (Enzyme F); assay: Homogeneous aqueous enzymatic resolution (ester hydrolysis) with Enzyme F; format: biochemical, Asperqillus oryzae; conditions: 100 mg protease (F), 3.22 gm ester in 100 ml 0.2 M sodium phosphate buffer pH 7.0, room temperature, 20 hours
Procedure: (Prozyme 6) (F) added. The enzymatic reaction mixtures were capped and briefly shaken until all the substrate had dissolved, and the enzyme had completely dissolved or dispersed. […] Evaporation of the ether left a white solid. Rotations were measured at c=1 in CHCl3.
The enzymatic reaction mixtures were capped and briefly shaken until all the substrate had dissolved, and the enzyme had completely dissolved or dispersed. […] Evaporation of the ether left a white solid. Rotations were measured at c=1 in CHCl3.
The reaction was started by adding 100 mg of the protease (F) from the fungus Asperqillus oryzae (from Amano Enzyme Corporation, Prozyme 6, 60,000 units per mg of solid).
After 20 hours at room temperature, the solution was acidified to pH 2 and extracted with 3 volumes of diethyl ether. The aqueous phase was saved for subsequent workup. The ether phase was washed with two volumes of distilled water and then one volume of saturated sodium chloride, and then it was dried over MgSO4 and subsequently evaporated to dryness. The resolved ibuprofen product recovered was 930 mg of white powder, indicating 45% conversion of racemic ester to acid. The optical rotation was -0.580° (measured at c=1 in ethanol), indicating the R isomer of ibuprofen.
35 mg of protease Enzyme F, as the commercial preparation Prozyme 6, were added to the aqueous solution. The reaction flask was capped, and briefly shaken until all the enzyme had dissolved or dispersed. […] The resulting mixture was diluted with one volume of water and was extracted with diethyl ether (2 times 200 ml). The ether layers were combined and backwashed with water (2 times 200 ml), saturated NaCl solution (200 ml), and then dried over MgSO4.
In this control run, a 0.5 M ester solution of (1) was prepared in 325 ml of 0.1 M sodium phosphate buffer (pH 7.0). The reaction was started by adding 3 gm of the above enzyme (F). The pH was controlled at 7.0 with 8.22 M sodium hydroxide. After 6.49 hours at 30° C., 6.63 ml of hydroxide were added, indicating 37.7% conversion. […]

[5] = test system: protease Prozyme 6 (Enzyme F); assay: Asymmetric hydrolysis in an extractive dispersion reactor (hexane) with Enzyme F; format: biochemical, Asperqillus oryzae; conditions: 100 mg Prozyme 6, 3.38 gm ester in 100 ml 0.2 M sodium phosphate buffer pH 7.0 and 100 ml hexane, room temperature, 3.5 hours
Procedure: In this Example, the hexane was dispersed in the reaction vessel to extract the inhibitory ibuprofen acid as it is formed. The reaction was started by adding 100 mg of the protease from the fungus Asperqillus oryzae (from Amano Enzyme Corporation, Prozyme 6, 60,000 units per mg of solid).
After 3.5 hours at room temperature with vigorous stirring, the solution was acidified to pH 2 and extracted with 2 volumes of hexane. The aqueous phase was saved for subsequent workup. The hexane phase was dried over MgSO4 and evaporated to dryness. The resolved ibuprofen product so recovered consisted of 490 mg of white powder, indicating 24% conversion. The optical rotation was -0.568° (c=1.015 in ethanol), indicating the R isomer of ibuprofen.

[6] = test system: Protease XXIII: from Aspergillus oryzae (Enzyme A); assay: Homogeneous aqueous enzymatic resolution (ester hydrolysis) with Enzyme A; conditions: 100 mg enzyme A, 10 mmol ester in 100 ml 0.2 M phosphate buffer pH 7.0, 20-22° C., 20 hours
Procedure: 10.0 millimole (mmol) of ibuprofen substrate ester 1 (the methyl sulfonate derivative) was dissolved in 100 ml of 0.2 M phosphate buffer of the appropriate cation (sodium or potassium, to be the same as the substrate counterion) at pH 7.0. 100 mg of enzyme A, as the
commercial preparation, was added directly to this solution, and the reaction mixture was capped and then shaken briefly until all the enzyme preparation had dispersed or dissolved. The reaction mixture was then allowed to stand at ambient temperature (20°-22° C.) for 20 hours. […] The combined organic layers were backwashed twice with one volume of water, once with one volume of saturated NaCl solution, and then dried over MgSO4.
Evaporation of the ether under reduced pressure left the resolved ibuprofen acid product; no other purification was performed. The optical rotation was measured in EtOH at a concentration c=1.0 for the ibuprofen acid product.
In this Example, 0.010 mol of ibuprofen ester 3 (the propyl sulfonate derivative) was dissolved in 100 ml 0.2 M sodium phosphate buffer at pH 7.8, and 150 mg of the commercial enzyme A preparation was added. The reaction was then handled as described for Examples 6.2.1.1-6.2.1.7.
In this Example, 0.010 mol of ibuprofen ester 2 (the ethyl sulfonate ester in the form of its potassium salt) were dissolved in 125 ml of 0.2 M sodium phosphate buffer at pH 7.0, and 150 mg of enzyme A was added to the reaction mixture as the commercially supplied preparation. The reaction was allowed to proceed for 18 hours, and the resulting product mixture was then worked-up as described above for Examples 6.2.1.1-6.2.1.7.
150 mg of Protease XXIII (A), as the commercially available preparation, was added to the reaction mixture, the reaction vessel was capped, and the entire heterogeneous reaction mixture was shaken in a wrist-action shaker for 18 hours. […] This mixture was then extracted twice with 200 ml of diethyl ether. The combined organic layers were backwashed twice with one volume of water, once with one volume of saturated NaCl, and the organic phase was then dried over MgSO4. Evaporation of the ether under reduced pressure left the resolved naproxen acid. No further purification was performed. The optical rotation of the product was measured in CHCl3 at a concentration c=1.0.
0.010 mol of naproxen ester 8 (the potassium salt of the ethyl sulfonate ester) was dispersed in 125 ml of 0.2 M sodium phosphate buffer at pH 7.8. 150 mg of enzyme A, as the commercially available preparation, were added, and the reaction handled as described in Example 6.2.1.1.
0.010 mol of ibuprofen ester 6 (the compound) were dissolved in 100 ml of 0.2 M sodium phosphate buffer at pH 7.0. 100 mg of enzyme A was added as the commercially available preparation, and the reaction handled as described above in Examples 6.2.1.1-6.2.1.7.
2.0 gm (0.0058 mole) of naproxen ester 9 (the sulfomethyl compound) was dissolved in 400 ml of 50 mM sodium phosphate buffer at pH 7.5. To the reaction were added 100 mg of Protease XXIII (A) as the commercially available preparation. After the enzyme had dissolved, the reaction mixture was incubated at 25 degrees for 16 hours. The reaction mixture was then acidified to pH 1-2 by the careful dropwise addition of concentrated HCl, and then it was extracted with ether (3×150 ml). The aqueous layer was retained. The combined organic layers were backwashed with water (2×100 ml), and these aqueous washings were added to the previously retained aqueous layer of the reaction. The ether layer was then washed once with 100 ml of brine, and dried over MgSO4.

[7] = biological target: T1, Protease VIII: "Subtilopeptidase A" (subtilisin Carlsberg) (Enzyme B); assay: Rates of hydrolysis of the two enantiomers (pH stat), Enzyme B; format: biochemical; conditions: 50 mM ester, 50 mM buffer pH 7.6, 0.1 ml of 50 mg/ml enzyme B
Procedure: (§1) 15 ml of a solution containing one enantiomer of the ester at a concentration of 50 mM, and Na buffer at 50 mM and pH 7.6 was observed using a pH stat device. 0.1 ml of a 50 mg/ml solution of enzyme B, made up from the commercially available preparation in 50 mM Na buffer at pH 7.6, were added. Rates of hydrolysis of both enantiomers of the ester compound were determined for the enzyme. The ratio of the rates of hydrolysis for the two enantiomers for the two enantiomers with respect to the enzyme indicate the stereospecificity of that enzyme's hydrolytic action on the racemic mixture of the ester. No evidence for the hydrolysis of the acetylthio ester portion of the substrate molecule was found.

[8] = test system: Protease XIV: from Streptomyces griseus (Enzyme G); assay: Rates of hydrolysis of the two enantiomers (pH stat), Enzyme G; format: biochemical; conditions: for Rate (rate of hydrolysis): 50 mM ester, 50 mM buffer pH 7.6, 0.1 ml of 50 mg/ml enzyme G
Procedure: as §1, with “mM, and Na3 PO4 buffer at” for “mM, and Na buffer at”, “solution of protease enzyme G,” for “solution of enzyme B,”, “protease enzyme G, made up” for “of enzyme B, made up”, “for the protease enzyme. The” for “for the enzyme. The”

[9] = test system: Protease XXIII: from Aspergillus oryzae (Enzyme A); assay: Rates of hydrolysis of the two enantiomers (pH stat), Enzyme A; format: biochemical; conditions: for Rate (rate of hydrolysis): 50 mM ester, 50 mM buffer pH 7.6, 0.1 ml of 50 mg/ml enzyme A
Procedure: as §1, with “enzyme A,” for “enzyme B,”, “mM Na3 PO4” for “mM Na”

[10] = test system: Protease XXIV: bacterial protease (Enzyme H); assay: Rates of hydrolysis of the two enantiomers (pH stat), Enzyme H; format: biochemical; conditions: for Rate (rate of hydrolysis): 50 mM ester, 50 mM buffer pH 7.6, 0.1 ml of 50 mg/ml Enzyme H
Procedure: as §1, with “Na3 PO4” for “Na”, “Enzyme H,” for “enzyme B,”

[11] = biological target: T3, Protease XXVII: "Nagarse" (Enzyme D); assay: Rates of hydrolysis of the two enantiomers (pH stat), Enzyme D; format: biochemical; conditions: 50 mM ester, 50 mM buffer pH 7.6, 0.1 ml of 50 mg/ml enzyme D
Procedure: as §1, with “Na3 PO4” for “Na”, “D,” for “B,”, “thioacetyl” for “acetylthio”

[12] = Solubility by absorbance of saturated solutions at 262 nm; format: physicochemical; conditions: saturated solution, pH 7, 5 mM phosphate buffer, room temperature

Compound: CC(C)Cc1ccc(C(C)C(=O)OCS(=O)(=O)O)cc1 (centres unmarked) [Compound 1, Sodium Salt of 4-Sulfomethyl Ester of 2-(4-Isobutylphenyl)propanoic Acid]
- % CONVERSION [1]: 29.1%
- % e.e. ([1]; acid product): 44.6%
- % e.e. [2]: 70.7%
- % CONVERSION [3]: 34.0%
- % e.e. ([3]; acid product): 37.7%
- conversion of racemic ester to acid [4]: 45%
- conversion [5]: 24%
- % CONVERSION [6]: 37.9%
- % e.e. ([6]; acid product): > 99%

Compound: CC(=O)SC[C@@H](C)C(=O)OCS(=O)(=O)O [Compound 14, Potassium Salt of the Sulfomethyl Ester of D-(-)-S-3-Acetylthio-2-methylpropanoic Acid]
- Rate (rate of hydrolysis) [7]: 65 umols/hr/mg
- Rate (rate of hydrolysis) [8]: 63 umols/hr/mg
- Rate (rate of hydrolysis) [9]: 5.3 umols/hr/mg
- Rate (rate of hydrolysis) [10]: 61 umols/hr/mg
- Rate (rate of hydrolysis) [11]: 27 umols/hr/mg

Compound: CC(=O)SC[C@H](C)C(=O)OCS(=O)(=O)O [Compound 15, Potassium Salt of the Sulfomethyl Ester of L-(+)-S-3-Acetylthio-2-methylpropanoic Acid]
- Rate (rate of hydrolysis) [7]: 135 umols/hr/mg
- Rate (rate of hydrolysis) [8]: 105 umols/hr/mg
- Rate Ratio L/D ([8]; enzyme G, pH 7.6): 1.7
- Rate (rate of hydrolysis) [9]: 12 umols/hr/mg
- Rate Ratio L/D ([9]; enzyme A, pH 7.6): 2.3
- Rate (rate of hydrolysis) [10]: 65 umols/hr/mg
- Rate Ratio L/D ([10]; Enzyme H, pH 7.6): 1.1
- Rate (rate of hydrolysis) [11]: 29 umols/hr/mg

Compound: COCCOC(=O)C(C)c1ccc(CC(C)C)cc1 (centres unmarked) [Methoxyethyl ester of ibuprofen]
- Solubility [12]: 180 µM (≈ 47.6 µg/mL)
